Data reported in patent US7932262B2 (Novartis AG, priority 2006, dated 2011).
Read-outs that look alike come from different tables or passages of the source.

Columns and labels:
PDK1 kinase = biological target: T1, PDK1 kinase (Homo sapiens, UniProt O15530); experiment: PDK1 Kinase Alpha Screen Assay; format: biochemical
T1 sequence (O15530 1-556): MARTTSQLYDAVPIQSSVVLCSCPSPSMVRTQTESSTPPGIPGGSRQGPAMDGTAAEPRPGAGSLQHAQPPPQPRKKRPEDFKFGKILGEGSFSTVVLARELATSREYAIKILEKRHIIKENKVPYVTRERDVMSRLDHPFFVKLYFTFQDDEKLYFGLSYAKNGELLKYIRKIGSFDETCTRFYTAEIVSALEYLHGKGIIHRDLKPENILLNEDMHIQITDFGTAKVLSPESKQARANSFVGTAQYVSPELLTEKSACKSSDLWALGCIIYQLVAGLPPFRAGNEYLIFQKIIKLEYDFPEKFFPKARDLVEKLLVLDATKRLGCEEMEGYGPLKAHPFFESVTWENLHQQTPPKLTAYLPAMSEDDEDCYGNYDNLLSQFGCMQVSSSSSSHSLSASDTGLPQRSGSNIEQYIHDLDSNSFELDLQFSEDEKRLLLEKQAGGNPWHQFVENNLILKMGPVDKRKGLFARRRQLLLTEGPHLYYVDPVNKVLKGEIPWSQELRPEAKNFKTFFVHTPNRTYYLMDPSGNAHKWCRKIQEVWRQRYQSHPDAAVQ
Procedure, shortened: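 Biotinylated PDK1-4 peptide (50 nM) phosphorylated by PDK1 with 10 uM ATP in pH 7.5 Tris/MgCl2/DTT buffer, 2.5% DMSO, for 3-18 hours. EDTA stop, then AlphaScreen detection with phospho-(Ser/Thr) PKA substrate antibody and protein A/streptavidin beads after overnight room-temperature development.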

PC-3 cells = experiment: Cell Proliferation Assay (Cell Titer Glo), PC-3 cell line; format: cell-based; details: Homo sapiens
Procedure, shortened: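 PC-3 cells, 1000 cells/well, left to adhere 3-5 h, then exposed for 3 days at 37° C to compounds as 1:3 serial dilutions from 500× DMSO stocks diluted in growth medium. Medium then replaced with fresh medium and viability read by Cell Titer Glo luminescence.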

[1] = PDK1 Kinase Alpha Screen Assay, read-out: PDK1 IC50
[2] = PC-3, Cell Proliferation Assay, PC3, read-out: CPEC50 PC3
[3] = PC-3, PC3 cells, read-out: CPEC50 PC3
[4] = PC-3, 72 h, PC-3 cells, 3 days incubation, read-out: CP EC50 PC3
[5] = PC-3, Cell Proliferation Assay, PC3 cells, read-out: CPEC50 PC3

CC(=O)NCCNC(=O)c1ccc(Nc2ncc3cccc(OC4CCNCC4)c3n2)cc1F [Compound 496, N-(2-acetamidoethyl)-2-fluoro-4-(8-(piperidin-4-yloxy)quinazolin-2-ylamino)benzamide]
IC50 (PDK1 kinase; [1]): < 5 µM
EC50 (PC-3 cells; [2]): 5 to 10 µM

NS(=O)(=O)c1ccc(Nc2ncc3cccc(-c4cncc(C(=O)N5CCOCC5)c4)c3n2)cc1 [Compound 984, 4-(8-(5-(morpholine-4-carbonyl)pyridin-3-yl)quinazolin-2-ylamino)benzenesulfonamide]
IC50 (PDK1 kinase; read-out: PDK1 IC50): < 5 µM
EC50 (PC-3 cells; [3]): 5 to 10 µM

O=C(c1ccc(Nc2ncc3cccc(OC4CCNCC4)c3n2)cc1F)N1CCOCC1 [Compound 447, (2-fluoro-4-(8-(piperidin-4-yloxy)quinazolin-2-ylamino)phenyl)(morpholino)methanone]
IC50 (PDK1 kinase; [1]): < 5 µM
EC50 (PC-3 cells; [2]): < 5 µM

O=C(NCCN1CCCC1)c1ccc(Nc2ncc3cccc(OC4CCNCC4)c3n2)cc1F [Compound 497, 2-fluoro-4-(8-(piperidin-4-yloxy)quinazolin-2-ylamino)-N-(2-(pyrrolidin-1-yl)ethyl)benzamide]
IC50 (PDK1 kinase; [1]): < 5 µM
EC50 (PC-3 cells; [2]): < 5 µM

CN1CCN(C(=O)c2cc(F)cc(Nc3ncc4cccc(OC5CCNCC5)c4n3)c2)CC1 [Compound 463, (3-fluoro-5-(8-(piperidin-4-yloxy)quinazolin-2-ylamino)phenyl)(4-methylpiperazin-1-yl)methanone]
IC50 (PDK1 kinase; [1]): < 5 µM
EC50 (PC-3 cells; [2]): < 5 µM

O=C(NC1CC1)c1cc(Nc2ncc3cccc(OC4CCNCC4)c3n2)ccc1N1CCOCC1 [Compound 456, N-cyclopropyl-2-morpholino-5-(8-(piperidin-4-yloxy)quinazolin-2-ylamino)benzamide]
IC50 (PDK1 kinase; [1]): < 5 µM
EC50 (PC-3 cells; [2]): < 5 µM

COc1cc(Nc2ncc3ccc(OC4CCN(C)CC4)cc3n2)cc(OC)c1 [Compound 566, N-(3,5-dimethoxyphenyl)-7-(1-methylpiperidin-4-yloxy)quinazolin-2-amine]
IC50 (PDK1 kinase; [1]): < 5 µM
EC50 (PC-3 cells; [2]): < 5 µM

CS(=O)(=O)CCNC(=O)c1ccc(Nc2ncc3cccc(OC4CCNCC4)c3n2)cc1F [Compound 493, 2-fluoro-N-(2-(methylsulfonyl)ethyl)-4-(8-(piperidin-4-yloxy)quinazolin-2-ylamino)benzamide]
IC50 (PDK1 kinase; [1]): < 5 µM
EC50 (PC-3 cells; [2]): < 5 µM

COc1cc(Nc2ncc3ccc(OC4CCNCC4)cc3n2)cc(C(F)(F)F)c1 [Compound 587, N-(3-methoxy-5-(trifluoromethyl)phenyl)-7-(piperidin-4-yloxy)quinazolin-2-amine]
IC50 (PDK1 kinase; [1]): < 5 µM
EC50 (PC-3 cells; [2]): < 5 µM

CCOC(=O)c1cc(F)cc(Nc2ncc3cccc(OC4CCNCC4)c3n2)c1 [Compound 451, ethyl 3-fluoro-5-(8-(piperidin-4-yloxy)quinazolin-2-ylamino)benzoate]
IC50 (PDK1 kinase; [1]): < 5 µM
EC50 (PC-3 cells; [2]): < 5 µM

Fc1cccc(Nc2ncc3c(Br)ccc(OC4CCNCC4)c3n2)c1 [Compound 433, 5-bromo-N-(3-fluorophenyl)-8-(piperidin-4-yloxy)quinazolin-2-amine]
IC50 (PDK1 kinase; [1]): < 5 µM
EC50 (PC-3 cells; [2]): < 5 µM

NS(=O)(=O)c1ccc(Nc2ncc3cc(C(F)(F)F)cc(-c4ccc(NCCN5CCCC5)nc4)c3n2)cc1 [Compound 963, 4-(8-(6-(2-(pyrrolidin-1-yl)ethylamino)pyridin-3-yl)-6-(trifluoromethyl)quinazolin-2-ylamino)benzenesulfonamide]
IC50 (PDK1 kinase; read-out: PDK1 IC50): < 5 µM
EC50 (PC-3 cells; [3]): < 5 µM

NS(=O)(=O)c1ccc(Nc2ncc3ccc(NC4CCNCC4)cc3n2)cc1 [Compound 361, 4-(7-(piperidin-4-ylamino)quinazolin-2-ylamino)benzenesulfonamide]
IC50 (PDK1 kinase; [1]): < 5 µM
EC50 (PC-3 cells; [2]): 5 to 10 µM

CC(C)N1CCC(Oc2cccc3cnc(Nc4ccc(C(F)(F)F)cc4)nc23)CC1 [Compound 85, [8-(1-Isopropyl-piperidin-4-yloxy)-quinazolin-2-yl]-(4-trifluoromethyl-phenyl)-amine]
IC50 (PDK1 kinase; read-out: PDK1 IC50): < 5 µM
EC50 (PC-3 cells; [4]): < 5 µM

O=C(NC1CC1)c1ccc(Nc2ncc3cccc(OC4CCNCC4)c3n2)cc1 [Compound 490, N-cyclopropyl-4-(8-(piperidin-4-yloxy)quinazolin-2-ylamino)benzamide]
IC50 (PDK1 kinase; [1]): < 5 µM
EC50 (PC-3 cells; [2]): < 5 µM

CC(C)N1CCC(Oc2cccc3cnc(Nc4cccc(N5CCOCC5)c4)nc23)CC1 [Compound 80, [8-(1-Isopropyl-piperidin-4-yloxy)-quinazolin-2-yl]-(3-morpholin-4-yl-phenyl)-amine]
IC50 (PDK1 kinase; read-out: PDK1 IC50): < 5 µM
EC50 (PC-3 cells; [4]): 5 to 10 µM

Fc1cccc(Nc2ncc3ccc(OC4CCNCC4)cc3n2)c1 [Compound 567, N-(3-fluorophenyl)-7-(piperidin-4-yloxy)quinazolin-2-amine]
IC50 (PDK1 kinase; [1]): < 5 µM
EC50 (PC-3 cells; [2]): < 5 µM

Fc1cc(Nc2ncc3cccc(-c4ccc(NCCN5CCCC5)nc4)c3n2)ccc1N1CCOCC1 [Compound 431, N-(3-fluoro-4-morpholinophenyl)-8-(6-(2-(pyrrolidin-1-yl)ethylamino)pyridine-3-yl)quinazolin-2-amine]
IC50 (PDK1 kinase; [1]): < 5 µM
EC50 (PC-3 cells; [2]): < 5 µM

CC(C)Cn1cc(-c2ccc3cnc(Nc4ccc(S(=O)(=O)NCCCN5CCCC5)cc4)nc3c2)cn1 [Compound 709, 4-(7-(1-isobutyl-1H-pyrazol-4-yl)quinazolin-2-ylamino)-N-(3-(pyrrolidin-1-yl)propyl)benzenesulfonamide]
IC50 (PDK1 kinase; [1]): < 5 µM
EC50 (PC-3 cells; [5]): < 5 µM

Cc1ccc(Nc2ncc3cccc(-c4ccc(NCCN5CCCC5)nc4)c3n2)cc1NS(C)(=O)=O [Compound 1001, N-(2-methyl-5-(8-(6-(2-(pyrrolidin-1-yl)ethylamino)pyridin-3-yl)quinazolin-2-ylamino)phenyl)methanesulfonamide]
IC50 (PDK1 kinase; read-out: PDK1 IC50): < 5 µM
EC50 (PC-3 cells; [3]): < 5 µM

CN1CCC(NCc2cccc3cnc(Nc4ccc(S(N)(=O)=O)cc4)nc23)CC1 [Compound 937, 4-(8-((1-methylpiperidin-4-ylamino)methyl)quinazolin-2-ylamino)benzenesulfonamide]
IC50 (PDK1 kinase; read-out: PDK1 IC50): < 5 µM
EC50 (PC-3 cells; [3]): 5 to 10 µM

CC(C)N1CCC(Oc2ccc(Br)c3cnc(Nc4ccc(C(=O)N5CCOCC5)cc4)nc23)CC1 [Compound 358, (4-(5-bromo-8-(1-isopropylpiperidin-4-yloxy)quinazolin-2-ylamino)phenyl)(morpholino)methanone]
IC50 (PDK1 kinase; [1]): < 5 µM
EC50 (PC-3 cells; [2]): 5 to 10 µM

O=S(=O)(c1ccc(Nc2ncc3ccc(OC4CCNCC4)cc3n2)cc1)N1CCOCC1 [Compound 332]
IC50 (PDK1 kinase; [1]): < 5 µM
EC50 (PC-3 cells; [2]): < 5 µM

CC(C)N1CCC(Oc2cccc3cnc(Nc4ccc(C(=O)N5CCOCC5)cc4)nc23)CC1 [Compound 537, (4-(8-(1-isopropylpiperidin-4-yloxy)quinazolin-2-ylamino)phenyl)(morpholino)methanone]
IC50 (PDK1 kinase; [1]): < 5 µM
EC50 (PC-3 cells; [2]): 5 to 10 µM

O=C(c1ccc(Nc2ncc3ccc(-c4cnn(CCF)c4)cc3n2)cc1)N1CCOCC1 [Compound 343, (4-(7-(1-(2-fluoroethyl)-1H-pyrazol-4-yl)quinazolin-2-ylamino)phenyl)(morpholino)methanone]
IC50 (PDK1 kinase; [1]): < 5 µM
EC50 (PC-3 cells; [2]): < 5 µM

CC(C)N1CCC(Oc2cccc3cnc(Nc4cc(F)cc(F)c4)nc23)CC1 [Compound 533, N-(3,5-difluorophenyl)-8-(1-isopropylpiperidin-4-yloxy)quinazolin-2-amine]
IC50 (PDK1 kinase; [1]): < 5 µM
EC50 (PC-3 cells; [2]): < 5 µM

CNC(=O)Cc1cccc(NC(=O)Cc2cccc(Nc3ncc4cccc(OC5CCN(C(C)C)CC5)c4n3)c2)c1 [Compound 78, 2-{3-[8-(1-Isopropyl-piperidin-4-yloxy)-quinazolin-2-ylamino]-phenyl}-N-(3-methylcarbamoylmethyl-phenyl)-acetamide]
IC50 (PDK1 kinase; read-out: PDK1 IC50): < 5 µM
EC50 (PC-3 cells; [4]): < 5 µM

C#Cc1cc(OC2CCNCC2)c2nc(Nc3ccc(C(=O)N4CCOCC4)cc3)ncc2c1Cl [Compound 708, (4-(5-chloro-6-ethynyl-8-(piperidin-4-yloxy)quinazolin-2-ylamino)phenyl)(morpholino)methanone]
IC50 (PDK1 kinase; [1]): < 5 µM
EC50 (PC-3 cells; [5]): < 5 µM

Fc1cccc(Nc2ncc3cccc(OC4CCNCC4)c3n2)c1 [Compound 480, N-(3-fluorophenyl)-8-(piperidin-4-yloxy)quinazolin-2-amine]
IC50 (PDK1 kinase; [1]): < 5 µM
EC50 (PC-3 cells; [2]): < 5 µM

COc1c(-c2cnn(C)c2)cc(Cl)c2cnc(Nc3cccc(N4CCOCC4)c3)nc12 [Compound 1036, 5-chloro-8-methoxy-7-(1-methyl-1H-pyrazol-4-yl)-N-(3-morpholinophenyl)quinazolin-2-amine]
IC50 (PDK1 kinase; head of the second part of Table 4: BV11261, read-out: PDK1 BV11261): < 5 µM
EC50 (PC-3 cells; [3]): < 5 µM

CN(C)[C@@H]1CCN(c2ccc(-c3cccc4cnc(Nc5ccc(S(N)(=O)=O)cc5)nc34)cn2)C1 [Compound 951, (R)-4-(8-(6-(3-(dimethylamino)pyrrolidin-1-yl)pyridin-3-yl)quinazolin-2-ylamino)benzenesulfonamide]
IC50 (PDK1 kinase; read-out: PDK1 IC50): < 5 µM
EC50 (PC-3 cells; [3]): < 5 µM
